Legend:
[1] = biological target: human Cereblon WT GST-tagged protein (Homo sapiens (Human), UniProt Q96SW2); test: CRBN-binding affinity, HTRF (CEREBLON BINDING kit, CISBIO); settings: HTRF inhibitory activity
How it was run: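 Compounds were mixed with GST-tagged human Cereblon WT protein, then with Thalidomide-Red tracer and GST Eu antibody, and binding was read by HTRF. Inhibition rate was calculated from 620 nm emission relative to blank control wells (no protein) and solvent control wells.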

IKZF1 = IKZF1 (Homo sapiens (Human), UniProt Q13422+Q96SW2); test: Western blot, substrate protein expression in hPBMC: IKZF1; type: cell-based; settings: hPBMC, compound 500 nM, 24 hours, Western blot
How it was run: (§1)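 hPBMC, 1×10^6 cells/mL, 24 h compound exposure; RIPA lysis, BCA protein assay, SDS-PAGE, NC membrane immunoblot. Densitometry vs internal control → % protein remaining; degradation % = 100% − remaining; DC50 = conc. at 50% of DMSO band signal.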

IKZF3 = IKZF3 (Homo sapiens (Human), UniProt Q96SW2+Q9UKT9); test: Western blot, substrate protein expression in hPBMC: IKZF3; type: cell-based; settings: hPBMC, compound 500 nM, 24 hours, Western blot
How it was run: as §1

[2] = test system: H146 cells (human small cell lung carcinoma cells); test: Tumor cell proliferation inhibition, CCK-8; type: cell-based; settings: NCI-H146, H146 cells, CCK-8, read-out: inhibitory activity (IC50, nM) H146
How it was run: (§2)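 Seeding, 24 h wait, then treatment with a 10-point dose series (5-fold steps down from 10 μM). After the treatment period, CCK-8 reagent was added to assess viability, and IC50 was derived from the inhibition plot.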

[3] = test system: Jurkat cells (human T-cell leukemia cells); test: Tumor cell proliferation inhibition, CCK-8; type: cell-based; settings: Jurkat cells, CCK-8, read-out: inhibitory activity (IC50, nM) Jurkat
How it was run: as §2

[4] = test system: CCRF-CEM (human acute lymphoblastic leukemia T-cells); test: Tumor cell proliferation inhibition, CCK-8; type: cell-based; settings: CCRF-CEM cells, CCK-8, read-out: inhibitory activity (IC50, nM) CCRF-CEM
How it was run: as §2

[5] = test system: MDA-MB-231 cells (human breast adenocarcinoma cells); test: Tumor cell proliferation inhibition, CCK-8; type: cell-based; settings: MDA-MB-231 cells, CCK-8, read-out: inhibitory activity (IC50, nM) MDA-MB-231
How it was run: as §2

[6] = test system: MM.1S cells (human multiple myeloma cells); test: Tumor cell proliferation inhibition, CCK-8; type: cell-based; settings: MM1.S, MM.1S cells, CCK-8, read-out: inhibitory activity (IC50, nM) MM.1S
How it was run: as §2

[7] = test system: MM.1R cells (dexamethasone-resistant human multiple myeloma cells); test: Tumor cell proliferation inhibition, CCK-8; type: cell-based; settings: MM.1R cells, CCK-8, read-out: inhibitory activity (IC50, nM) MM.1R
How it was run: as §2

[8] = test system: TMD8 cells (human diffuse large B-cell lymphoma cells); test: Tumor cell proliferation inhibition, CCK-8; type: cell-based; settings: TMD8 cells, CCK-8, read-out: inhibitory activity (IC50, nM) TMD8
How it was run: as §2

[9] = test system: Kasumi-1 (human acute myeloid leukemia cells); test: Tumor cell proliferation inhibition, CCK-8; type: cell-based; settings: Kasumi-1 cells, CCK-8, read-out: inhibitory activity (IC50, nM) Kasumi-1
How it was run: as §2

[10] = test system: CAL-62 (human thyroid carcinoma cells); test: Tumor cell proliferation inhibition, CCK-8; type: cell-based; settings: CAL-62 cells, CCK-8, read-out: inhibitory activity (IC50, nM) CAL-62
How it was run: as §2

GSPT1 = GSPT1 (Homo sapiens (Human), UniProt P15170+Q96SW2); test: Western blot, substrate protein expression in hPBMC: GSPT1; type: cell-based; settings: hPBMC, compound 500 nM, 24 hours, Western blot
How it was run: as §1

Chain of IKZF3 (Q9UKT9 whole entry): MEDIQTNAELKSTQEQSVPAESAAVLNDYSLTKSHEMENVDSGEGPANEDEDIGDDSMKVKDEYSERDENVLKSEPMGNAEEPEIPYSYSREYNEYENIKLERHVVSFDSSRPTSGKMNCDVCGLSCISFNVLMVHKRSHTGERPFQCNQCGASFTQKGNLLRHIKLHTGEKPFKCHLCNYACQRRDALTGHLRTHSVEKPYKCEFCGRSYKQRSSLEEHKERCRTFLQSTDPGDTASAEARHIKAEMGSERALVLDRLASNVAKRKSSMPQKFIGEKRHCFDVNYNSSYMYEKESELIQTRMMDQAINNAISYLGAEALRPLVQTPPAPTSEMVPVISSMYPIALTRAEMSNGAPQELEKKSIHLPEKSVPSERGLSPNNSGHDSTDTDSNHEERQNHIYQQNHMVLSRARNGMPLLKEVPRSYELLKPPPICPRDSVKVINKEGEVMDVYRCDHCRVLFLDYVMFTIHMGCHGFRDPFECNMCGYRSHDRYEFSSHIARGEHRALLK
Chain of IKZF3 (Q96SW2 whole entry): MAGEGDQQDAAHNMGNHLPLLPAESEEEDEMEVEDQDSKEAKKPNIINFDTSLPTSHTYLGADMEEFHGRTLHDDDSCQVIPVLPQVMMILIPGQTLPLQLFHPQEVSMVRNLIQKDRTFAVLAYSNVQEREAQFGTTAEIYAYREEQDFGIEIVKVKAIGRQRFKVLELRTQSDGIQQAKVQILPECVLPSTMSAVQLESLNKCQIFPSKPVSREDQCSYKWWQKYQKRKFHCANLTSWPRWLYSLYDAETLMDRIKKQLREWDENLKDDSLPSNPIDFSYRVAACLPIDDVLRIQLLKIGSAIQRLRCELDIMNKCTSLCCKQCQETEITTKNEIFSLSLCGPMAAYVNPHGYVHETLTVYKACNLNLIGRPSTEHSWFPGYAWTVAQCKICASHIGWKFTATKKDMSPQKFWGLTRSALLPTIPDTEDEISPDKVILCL
Chain of IKZF3 (Q16531 whole entry partner): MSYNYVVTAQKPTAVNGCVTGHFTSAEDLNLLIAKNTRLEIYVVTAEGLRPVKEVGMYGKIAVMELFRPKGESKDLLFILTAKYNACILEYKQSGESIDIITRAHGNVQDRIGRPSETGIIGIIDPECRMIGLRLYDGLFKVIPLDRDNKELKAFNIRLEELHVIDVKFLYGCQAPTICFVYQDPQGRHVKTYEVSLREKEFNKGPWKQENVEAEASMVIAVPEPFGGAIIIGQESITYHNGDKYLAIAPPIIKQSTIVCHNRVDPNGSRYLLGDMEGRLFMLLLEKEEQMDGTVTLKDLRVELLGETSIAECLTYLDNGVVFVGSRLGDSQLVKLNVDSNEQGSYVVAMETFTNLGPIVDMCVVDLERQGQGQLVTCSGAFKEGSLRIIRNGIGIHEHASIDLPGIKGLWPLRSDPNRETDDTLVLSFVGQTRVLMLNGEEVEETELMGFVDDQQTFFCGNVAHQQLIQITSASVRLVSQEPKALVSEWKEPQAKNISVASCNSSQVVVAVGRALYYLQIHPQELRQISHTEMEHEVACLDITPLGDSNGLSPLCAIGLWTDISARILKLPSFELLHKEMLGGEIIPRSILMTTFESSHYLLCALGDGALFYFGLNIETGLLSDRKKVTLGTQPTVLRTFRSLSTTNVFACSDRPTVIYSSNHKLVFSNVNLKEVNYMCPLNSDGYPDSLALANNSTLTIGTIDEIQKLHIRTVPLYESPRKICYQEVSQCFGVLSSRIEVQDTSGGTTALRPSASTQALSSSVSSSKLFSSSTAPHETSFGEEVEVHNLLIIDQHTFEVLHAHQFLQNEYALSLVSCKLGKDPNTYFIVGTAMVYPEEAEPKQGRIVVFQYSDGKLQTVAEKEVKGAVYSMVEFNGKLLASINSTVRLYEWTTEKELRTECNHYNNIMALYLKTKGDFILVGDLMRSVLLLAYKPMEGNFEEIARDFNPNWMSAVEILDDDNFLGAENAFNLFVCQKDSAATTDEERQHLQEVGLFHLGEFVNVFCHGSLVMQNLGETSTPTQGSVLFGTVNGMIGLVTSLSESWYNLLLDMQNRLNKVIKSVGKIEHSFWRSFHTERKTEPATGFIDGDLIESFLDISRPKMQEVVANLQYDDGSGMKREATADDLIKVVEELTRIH
Chain of GSPT1 (P15170 whole entry): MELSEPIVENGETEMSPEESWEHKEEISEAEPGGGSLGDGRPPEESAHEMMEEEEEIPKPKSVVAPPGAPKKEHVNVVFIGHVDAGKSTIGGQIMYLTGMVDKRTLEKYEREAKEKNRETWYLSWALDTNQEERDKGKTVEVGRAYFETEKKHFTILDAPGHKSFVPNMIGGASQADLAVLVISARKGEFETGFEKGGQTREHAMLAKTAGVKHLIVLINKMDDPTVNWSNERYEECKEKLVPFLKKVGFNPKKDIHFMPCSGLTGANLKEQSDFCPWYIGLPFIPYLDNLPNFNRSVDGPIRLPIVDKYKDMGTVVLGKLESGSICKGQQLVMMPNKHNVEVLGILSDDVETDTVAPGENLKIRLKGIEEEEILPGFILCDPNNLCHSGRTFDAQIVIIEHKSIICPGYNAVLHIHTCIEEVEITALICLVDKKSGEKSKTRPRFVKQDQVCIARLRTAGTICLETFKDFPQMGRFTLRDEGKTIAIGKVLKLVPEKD
Chain of GSPT1 (Q96SW2 whole entry): as the sequence (Q96SW2 whole entry) above
Chain of GSPT1 (Q16531 whole entry partner): as the sequence (Q16531 whole entry partner) above
Chain of human Cereblon WT GST-tagged protein (Q96SW2 whole entry): as the sequence (Q96SW2 whole entry) above
Chain of IKZF1 (Q13422 whole entry): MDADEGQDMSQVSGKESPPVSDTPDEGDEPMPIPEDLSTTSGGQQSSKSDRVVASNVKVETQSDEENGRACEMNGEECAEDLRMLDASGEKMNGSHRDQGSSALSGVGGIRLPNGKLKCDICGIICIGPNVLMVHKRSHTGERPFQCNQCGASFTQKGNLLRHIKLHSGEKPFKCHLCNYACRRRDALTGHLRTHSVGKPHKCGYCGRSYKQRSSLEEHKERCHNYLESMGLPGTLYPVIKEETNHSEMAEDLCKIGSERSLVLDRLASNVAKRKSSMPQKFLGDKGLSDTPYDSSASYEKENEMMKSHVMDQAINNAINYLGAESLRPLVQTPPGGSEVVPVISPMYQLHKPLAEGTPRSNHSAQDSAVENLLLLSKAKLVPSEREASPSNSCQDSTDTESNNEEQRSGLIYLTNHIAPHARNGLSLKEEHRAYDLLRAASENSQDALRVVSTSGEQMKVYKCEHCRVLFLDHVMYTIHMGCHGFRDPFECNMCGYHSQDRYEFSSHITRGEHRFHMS
Chain of IKZF1 (Q96SW2 whole entry): as the sequence (Q96SW2 whole entry) above
Chain of IKZF1 (Q16531 whole entry partner): as the sequence (Q16531 whole entry partner) above

IC50 [1] [nM] | IC50 [2] [nM] | IC50 [3] [nM] | IC50 [4] [nM] | IC50 [5] [nM] | IC50 [6] [nM] | IC50 [7] [nM] | IC50 [8] [nM] | IC50 [9] [nM] | IC50 [10] [nM] | SMILES | substrate protein remaining % IKZF1 (IKZF1) | substrate protein remaining % IKZF3 (IKZF3) | substrate protein remaining % GSPT1 (GSPT1)
< 500 | 10 to 50 | 10 to 50 | 1 to 10 | 10 to 50 | 1 to 10 | 10 to 50 | 10 to 50 | 1 to 10 | 1 to 10 | O=C1CCC(N2Cc3c(ccc(CN4CCN(C(c5ccc(F)cc5)c5ccc(F)cc5)CC4)c3F)C2=O)C(=O)N1 (stereo not shown) [GT-03564, 3-(5-((4-(bis(4-fluorophenyl)methyl)piperazin-1-yl)methyl)-4-fluoro-1-oxoisoindolin-2-yl)piperidine-2,6-dione] | A (A represents 0% ≤ substrate protein remaining % ≤ 50%) | A (A represents 0% ≤ substrate protein remaining % ≤ 50%) | A (A represents 0% ≤ substrate protein remaining % ≤ 50%)
500 to 1000 | 10 to 50 | 1 to 10 | < 1 | 10 to 50 | 1 to 10 | 1 to 10 | 100 to 500 | 1 to 10 | 1 to 10 | O=C1CCC(N2Cc3cc(CN4CCN(C(c5ccc(F)cc5)c5ccc(F)cc5)CC4)c(F)cc3C2=O)C(=O)N1 (stereo not shown) [GT-03698, 3-(5-((4-(bis(4-fluorophenyl)methyl)piperazin-1-yl)methyl)-6-fluoro-1-oxoisoindolin-2-yl)piperidine-2,6-dione] | A (A represents 0% ≤ substrate protein remaining % ≤ 50%) | A (A represents 0% ≤ substrate protein remaining % ≤ 50%) | A (A represents 0% ≤ substrate protein remaining % ≤ 50%)
500 to 1000 | 10 to 50 | 1 to 10 | 1 to 10 | 1 to 10 | 1 to 10 | 1 to 10 | 10 to 50 | 1 to 10 | 1 to 10 | O=C1CCC(N2Cc3cc(CN4CCN(C(c5ccccc5)c5ccccc5)CC4)c(F)cc3C2=O)C(=O)N1 (stereo not shown) [GT-03700, 3-(5-((4-benzhydrylpiperazin-1-yl)methyl)-6-fluoro-1-oxoisoindolin-2-yl)piperidine-2,6-dione] | A (A represents 0% ≤ substrate protein remaining % ≤ 50%) | B (B represents substrate protein remaining % > 50%) | A (A represents 0% ≤ substrate protein remaining % ≤ 50%)
500 to 1000 | 50 to 100 | 10 to 50 | 1 to 10 | 10 to 50 | 1 to 10 | 1 to 10 | 100 to 500 | 10 to 50 | 1 to 10 | O=C1CCC(N2Cc3cc(CN4CCN(C(c5cccc(F)c5)c5cccc(F)c5)CC4)c(F)cc3C2=O)C(=O)N1 (stereo not shown) [GT-03701, 3-(5-((4-(bis(3-fluorophenyl)methyl)piperazin-1-yl)methyl)-6-fluoro-1-oxoisoindolin-2-yl)piperidine-2,6-dione] | A (A represents 0% ≤ substrate protein remaining % ≤ 50%) | A (A represents 0% ≤ substrate protein remaining % ≤ 50%) | A (A represents 0% ≤ substrate protein remaining % ≤ 50%)
< 500 | 10 to 50 | 1 to 10 | < 1 | 1 to 10 | < 1 | 1 to 10 | 10 to 50 | 1 to 10 | < 1 | O=C1CCC(N2Cc3cc(CN4CCN(C(c5cccc(F)c5)c5cccc(F)c5)CC4)ccc3C2=O)C(=O)N1 (stereo not shown) [GT-03702, 3-(5-((4-(bis(3-fluorophenyl)methyl)piperazin-1-yl)methyl)-1-oxoisoindolin-2-yl)piperidine-2,6-dione] | A (A represents 0% ≤ substrate protein remaining % ≤ 50%) | A (A represents 0% ≤ substrate protein remaining % ≤ 50%) | A (A represents 0% ≤ substrate protein remaining % ≤ 50%)
500 to 1000 | 50 to 100 | 1 to 10 | 1 to 10 | 10 to 50 | 1 to 10 | 1 to 10 | 100 to 500 | 10 to 50 | 1 to 10 | O=C1CCC(N2Cc3c(ccc(CN4CCN(C(c5ccccc5)c5ccccn5)CC4)c3F)C2=O)C(=O)N1 (stereo not shown) [GT-03832, 3-(4-fluoro-1-oxo-5-((4-(phenyl(pyridin-2-yl)methyl)piperazin-1-yl)methyl)isoindolin-2-yl)piperidine-2,6-dione] | B (B represents substrate protein remaining % > 50%) | A (A represents 0% ≤ substrate protein remaining % ≤ 50%) | A (A represents 0% ≤ substrate protein remaining % ≤ 50%)

Second part, the molecule before the results:

SMILES | IC50 [1] [nM] | IC50 [2] [nM] | IC50 [3] [nM] | IC50 [4] [nM] | IC50 [5] [nM] | IC50 [6] [nM] | IC50 [7] [nM] | IC50 [8] [nM] | IC50 [9] [nM] | IC50 [10] [nM] | substrate protein remaining % IKZF1 (IKZF1) | substrate protein remaining % IKZF3 (IKZF3) | substrate protein remaining % GSPT1 (GSPT1)
O=C1CCC(N2Cc3cc(CN4CCN(C(c5ccc(F)cc5)c5ccc(F)cc5)CC4)ccc3C2=O)C(=O)N1 (stereo not shown) [GT-03386, 3-(5-((4-(bis(4-fluorophenyl)methyl)piperazin-1-yl)methyl)-1-oxoisoindolin-2-yl)piperidine-2,6-dione] | 500 to 1000 | 50 to 100 | 10 to 50 | 1 to 10 | 10 to 50 | 1 to 10 | 1 to 10 | 50 to 100 | 10 to 50 | 1 to 10 | A (A represents 0% ≤ substrate protein remaining % ≤ 50%) | A (A represents 0% ≤ substrate protein remaining % ≤ 50%) | A (A represents 0% ≤ substrate protein remaining % ≤ 50%)
O=C1CCC(N2Cc3c(ccc(CN4CCN(C(c5ccccc5)c5ccccc5)CC4)c3F)C2=O)C(=O)N1 (stereo not shown) [GT-03466, 3-(5-((4-benzhydrylpiperazin-1-yl)methyl)-4-fluoro-1-oxoisoindolin-2-yl)piperidine-2,6-dione] | < 500 | 10 to 50 | 1 to 10 | < 1 | 1 to 10 | 1 to 10 | 1 to 10 | 10 to 50 | 1 to 10 | 1 to 10 | A (A represents 0% ≤ substrate protein remaining % ≤ 50%) | A (A represents 0% ≤ substrate protein remaining % ≤ 50%) | A (A represents 0% ≤ substrate protein remaining % ≤ 50%)
O=C1CCC(N2Cc3c(ccc(CN4CCN(C(c5cccc(F)c5)c5cccc(F)c5)CC4)c3F)C2=O)C(=O)N1 (stereo not shown) [GT-03703, 3-(5-((4-(bis(3-fluorophenyl)methyl)piperazin-1-yl)methyl)-4-fluoro-1-oxoisoindolin-2-yl)piperidine-2,6-dione] | < 500 | 10 to 50 | 1 to 10 | < 1 | 1 to 10 | 1 to 10 | 1 to 10 | 10 to 50 | 1 to 10 | 1 to 10 | A (A represents 0% ≤ substrate protein remaining % ≤ 50%) | A (A represents 0% ≤ substrate protein remaining % ≤ 50%) | A (A represents 0% ≤ substrate protein remaining % ≤ 50%)
O=C1CCC(N2Cc3cc(CN4CCN(C(c5ccccc5)c5ccccn5)CC4)c(F)cc3C2=O)C(=O)N1 (stereo not shown) [GT-03833, 3-(6-fluoro-1-oxo-5-((4-(phenyl(pyridin-2-yl)methyl)piperazin-1-yl)methyl)isoindolin-2-yl)piperidine-2,6-dione] | 1000 to 1900 | 10 to 50 | 1 to 10 | < 1 | 10 to 50 | 1 to 10 | 1 to 10 | 10 to 50 | 1 to 10 | 1 to 10 | B (B represents substrate protein remaining % > 50%) | A (A represents 0% ≤ substrate protein remaining % ≤ 50%) | A (A represents 0% ≤ substrate protein remaining % ≤ 50%)
